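Where inhibition never reached the appropriate level, the endpoint shown equals the highest concentration tested. Otherwise, values were interpolated linearly from a five-concentration, 48-hour dose response in 96-well plates. Here, GI50 denotes the concentration required for 50% inhibition of growth. Definition used: TGI = concentration required for complete inhibition of growth.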 Where a SMILES comes first, the peptide text is derived from it. The star is where a group is joined. Cbz = O=C(OCc1ccccc1)*; CH2Cl = ClC*
Tests used:
Assay in all cases: growth of human tumour cells (NCI), 48 h
HCC-2998 colon = tested on: HCC-2998 colon
HL-60(TB) leukemia = tested on: HL-60(TB) leukemia
LOX IMVI melanoma = tested on: LOX IMVI melanoma
NCI-H460 lung = tested on: NCI-H460 lung
SF-268 CNS = tested on: SF-268 CNS
SF-539 CNS = tested on: SF-539 CNS
SK-MEL-28 melanoma = tested on: SK-MEL-28 melanoma
SNB-75 CNS = tested on: SNB-75 CNS
SW-620 colon = tested on: SW-620 colon
TK-10 renal = tested on: TK-10 renal

Compound | TGI (HCC-2998 colon) [µM] | TGI (HL-60(TB) leukemia) [µM] | TGI (LOX IMVI melanoma) [µM] | TGI (NCI-H460 lung) [µM] | TGI (SF-268 CNS) [µM] | TGI (SF-539 CNS) [µM] | TGI (SK-MEL-28 melanoma) [µM] | TGI (SNB-75 CNS) [µM] | TGI (SW-620 colon) [µM] | TGI (TK-10 renal) [µM] | GI50 (HCC-2998 colon) [µM] | GI50 (HL-60(TB) leukemia) [µM] | GI50 (LOX IMVI melanoma) [µM] | GI50 (NCI-H460 lung) [µM] | GI50 (SF-268 CNS) [µM] | GI50 (SF-539 CNS) [µM] | GI50 (SK-MEL-28 melanoma) [µM] | GI50 (SNB-75 CNS) [µM] | GI50 (SW-620 colon) [µM] | GI50 (TK-10 renal) [µM]
CCCc1nc(NC#N)nc(C(=O)Nc2ccccc2)c1CC | > 100 | > 100 | > 100 | > 100 | > 100 | > 100 | > 100 | > 100 | > 100 | > 100 | – | – | – | – | – | – | – | – | – | –
O=C(CC1(O)C(=O)N(Cc2ccccc2)c2ccc(F)cc21)c1ccc(C(=O)NCC2CCC3(CC2)OOC2(CCCCC2)OO3)cc1 (stereo not given) | 3.92 | 0.999 | 0.222 | 0.487 | 3.22 | 0.541 | > 84.7 | 3.19 | 4.3 | 0.413 | 1.84 | 0.349 | 0.0771 | 0.21 | 1.31 | 0.21 | 4.38 | 1.48 | 1.84 | 0.191
CN1CCOC(c2ccccc2)O1 (stereo not given) | > 100 | > 100 | > 100 | > 100 | > 100 | > 100 | > 100 | > 100 | > 100 | > 100 | – | – | – | – | – | – | – | – | – | –
O=C(Nc1nc(=S)c2c(ncn2CCOC(=O)c2ccccc2)[nH]1)c1ccccc1 | > 100 | > 100 | > 100 | > 100 | 39.3 | 94.3 | > 100 | 47.5 | > 100 | > 100 | – | – | – | – | – | – | – | – | – | –
Nc1nc(/C=C\c2ccc([N+](=O)[O-])s2)nc(N2CCCC2)n1 | 12.8 | 25.3 | 2.41 | 16.1 | 13.6 | 30.4 | 23.6 | 44 | 24 | 20.9 | 4.86 | 5.39 | 0.198 | 3.68 | 2.37 | 8.24 | 9.33 | 15.1 | 2.76 | 6.27
[Cl][Hg][c]1cc[c]([Hg][Cl])o1 | 42.9 | 7.03 | 4.27 | 34.1 | 12.3 | 13.8 | 19.9 | 19.6 | 3.23 | 3.1 | 17 | 2.39 | 0.707 | 10 | 2.77 | 3.08 | 5.6 | 3.78 | 1.32 | 1.7
CN(C)CC1CCCC/C1=N/OC(=O)c1ccc(Cl)cc1 (stereo not given) | > 100 | > 100 | > 100 | > 100 | > 100 | > 100 | > 100 | > 100 | > 100 | > 100 | – | – | – | – | – | – | – | – | – | –
CC(C)Oc1ccc2cc(-c3nn(CC4CCNCC4)c4ncnc(N)c34)ccc2c1 | 24.6 | 20.6 | 33.8 | 28.5 | 23.5 | 24.7 | 5.3 | 15.2 | 26.8 | 25.7 | 9.53 | 6.45 | 16.7 | 14.9 | 8.8 | 12.3 | 2.14 | 1.09 | 13.2 | 12.8
CC(=O)OC12C=CC(=O)N1c1ccccc1C(=O)O2 (stereo not given) | > 100 | > 100 | > 100 | > 100 | > 100 | > 100 | > 100 | > 100 | > 100 | > 100 | – | – | – | – | – | – | – | – | – | –
COc1ccc(/C=C2/N=C(c3ccccc3)N(c3c(C)n(C)n(-c4ccccc4)c3=O)C2=O)cc1OC | > 100 | > 100 | > 100 | > 100 | > 100 | > 100 | > 100 | > 100 | > 100 | > 100 | > 100 | > 100 | > 100 | > 100 | > 100 | > 100 | > 100 | 86.4 | > 100 | > 100
CC1c2c(Cl)nc3ccccc3c2Oc2c1c(Cl)nc1ccccc21 | > 100 | > 100 | > 100 | > 100 | > 100 | > 100 | > 100 | > 100 | > 100 | > 100 | – | – | – | – | – | – | – | – | – | –
CCn1c2ccccc2c2cc(NC(=O)Nc3ccc([N+](=O)[O-])cc3C)ccc21 | > 100 | 5.85 | > 100 | 14.8 | > 100 | 4.41 | 26.2 | 17.6 | 48.1 | 15.3 | 4.25 | 1.06 | 4.98 | 3.09 | 12.2 | 1.83 | 5.33 | 3.05 | 3.38 | 3.62
CC(C)CC(NC(=O)OCc1ccccc1)C(=O)NC(Cc1ccccc1)C(=O)CCl (stereo not drawn) (Cbz-Leu-Phe-CH2Cl; configuration not given here) | 26.1 | 3.53 | 2.08 | 18 | 9.88 | 10.2 | 3.97 | 9.32 | 3.94 | 3.24 | – | – | – | – | – | – | – | – | – | –
CCOc1ccccc1NC(=O)C(=O)CC(=O)c1sc(Nc2nnc(-c3ccc(Cl)c(Cl)c3)o2)nc1C | > 100 | > 100 | > 100 | > 100 | > 100 | > 100 | > 100 | > 100 | > 100 | > 100 | – | – | – | – | – | – | – | – | – | –
C#C[C@]1(O)CCC2C3CCc4cc(O)ccc4C3CC[C@@]21C (stereo not given in full) | 63.5 | 24.2 | 18.8 | 17.8 | 32.7 | 14.7 | 19.7 | 6.76 | 23.6 | > 100 | 9.88 | 3.45 | 5.27 | 4.02 | 5.23 | 4 | 5.85 | 1.93 | 3.8 | 10.3
CCOc1ccc(NC(=O)C(=O)CC(=O)c2c(C)n([O-])c3ccccc3[n+]2=O)cc1 | > 100 | > 100 | > 100 | > 100 | > 100 | > 100 | > 100 | > 100 | > 100 | > 100 | – | – | – | – | – | – | – | – | – | –
COc1ccc(CC2NCCc3c2[nH]c2ccccc32)cc1 (stereo not given) | 48.3 | 53.5 | > 100 | > 100 | > 100 | > 100 | > 100 | > 100 | > 100 | > 100 | – | – | – | – | – | – | – | – | – | –

— PubChem BioAssay (NCI)
